Measurements reported in patent publication US7345091B2, “Carotenoid ether analogs or derivatives for the inhibition and amelioration of disease” (Cardax Pharmaceuticals, Inc., priority 2002, dated 2008).
Where a name gives a salt, the structure may show the parent alone. Read-outs that look alike come from different tables or passages of the source.

Key:
[1] = Determination of water solubility; format: physicochemical
Method: A total of 30 mg of sample (disodium disuccinate astaxanthin derivative, as the all-trans mixture of stereoisomers 3S,3′S, meso, and 3R,3′R in a 1:2:1 ratio) was added to 2 mL of sterile-filtered ([…] Millipore®) deionized (DI) water in a 15 mL glass centrifuge tube. The tube was wrapped in aluminum foil and the mixture was shaken for 2 hours, then centrifuged at 3500 rpm for 10 minutes. The aqueous solution was filtered through a 0.45 micron PVDF disposable filter device. A 1 mL volume of filtrate was then diluted appropriately with DI water, and the concentration of the solution was measured at 480 nm using a four point calibration curve prepared from fresh sample.

[2] = tested on: superoxide anion; experiment: Superoxide anion scavenging by EPR (DEPMPO spin trap) in phorbol ester-stimulated isolated neutrophils; format: cell-based, human; details: for potency relative to the SOD mimetic positive control: adjusted for percent inhibition and tested dose
Method: In an experiment, neutrophils were isolated on a Percoll gradient from whole blood from a human volunteer. The isolated neutrophils were then re-suspended in phosphate-buffered saline, and maximally stimulated with phorbol ester to induce the respiratory burst and production of superoxide anion. To the solution of activated human neutrophils, the disodium salt disuccinate astaxanthin derivative XVI was added at various concentrations, and the superoxide signal [as measured with electron paramagnetic resonance (EPR) spectroscopy] was subsequently measured. […] The disodium salt disuccinate astaxanthin derivative XVI tested at 100 μM scavenged 28% of the total signal. At 3 mM, almost no superoxide signal remained. […] In addition to reducing the superoxide anion signal important in ischemia-reperfusion injury, it is also likely that myocardial salvage can be achieved with the described carotenoid derivative, as superoxide anion plays a major role in tissue injury and death during prolonged myocardial ischemia. In a third experiment, neutrophils were again isolated on a Percoll gradient from whole blood from a second human volunteer. The isolated neutrophils were then re-suspended in phosphate-buffered saline, and maximally stimulated with phorbol ester to induce the respiratory burst and production of superoxide anion. […] Astaxanthin 2E was dissolved in HPLC grade dimethylsulfoxide (DMSO; Sigma-Aldrich, St. Louis, Mo.). The disodium disuccinate derivatives XVI of astaxanthin 2E were tested separately in […] formulations: statistical mixture of stereoisomers (as for astaxanthin, above, a 1:2:1 mixture of all-E; labeled as “mixture” in all tables and figures); 3S,3'S, and 3R,3'R (optical isomers or enantiomers); and meso (mixture of identical 3S,3'R and 3'S,3R; diastereomers of the enantiomeric pair). […] The disuccinate derivatives were first tested at the appropriate final concentrations in pure aqueous solution (deionized water) from stock solutions of 10 mM. Each of the four disuccinate derivatives were then tested from stock solutions prepared in a 1:2 mixture of ethanol (final concentration of EtOH in stock solution 331⁄3%; final concentration in isolated neutrophil assay 0.3%; HPLC grade ethanol, Sigma-Aldrich, St. Louis, Mo.) at 10 mM. […] Metaphore® Pharmaceuticals, Inc., St. Louis, Mo.) were also performed. Human polymorphonuclear leukocytes (PMNs) were isolated from freshly sampled venous blood of a single volunteer by Percoll density gradient centrifugation, which yielded PMNs with a purity of >95%. Each 10 mL of whole blood was mixed with 0.8 mL of 0.1 M EDTA and 25 mL of saline. The diluted blood was layered over 9 mL of Percoll at a specific density of 1.080 g/mL. After centrifugation at 400×g for 20 min at 20° C., the plasma, mononuclear cell, and Percoll layers were removed. Erythrocytes were lysed by addition of 18 mL of ice-cold water for 30 s, followed by 2 mL of 10× PIPES buffer (25 mM PIPES, 110 mM NaCl, and 5 mM KCl, titrated to pH 7.4 with NaOH). Cells were pelleted at 4° C., the supernatant was decanted, and the procedure was repeated. After the second hypotonic lysis, cells were washed twice with PAG buffer (PIPES buffer containing 0.003% human serum albumin and 0.1% glucose). Afterward, PMNs were counted by light microscopy on a hemocytometer. The final pellet was then suspended in PAG-CM buffer (PAG buffer with 1 mM CaCl2 and 1 mM MgCl2). All EPR measurements were performed using a Bruker ER 300 EPR spectrometer operating at X-band with a TM110 cavity. The microwave frequency was measured with a Model 575 microwave counter (EIP Microwave, Inc., San Jose, Calif.). To measure O^ -2 generation from phorbol-ester (PMA)-stimulated PMNs, EPR spin-trapping studies were performed using DEPMPO (Oxis, Portland, Oreg.) at 10 mM. 1×10^6 PMNs were stimulated with PMA (1 ng/mL) and loaded into capillary tubes for EPR measurements. […]

## CC1=C(/C=C/C(C)=C/C=C/C(C)=C/C=C/C=C(C)/C=C/C=C(C)/C=C/C2=C(C)C(=O)C(OC(=O)CCC(=O)O)CC2(C)C)C(C)(C)CC(OC(=O)CCC(=O)O)C1=O (racemic) [XVI, Disodium Salt of the Disuccinic Acid Ester of Astaxanthin]
[1]; deionized water, water, thermodynamic from solid, pure aqueous formulation
  solubility at 2 h: 8.64 mg/mL
[1]; emulsion vs pure aqueous formulation
  increase in solubility in the dosing vehicle: 6 fold
[1]; olive oil/water/soybean lecithin emulsion, aqueous with cosolvent or surfactant or cyclodextrin, olive oil/water/soybean lecithin emulsion for oral gavage
  solubility: ~50 mg/mL
[1]; pure aqueous formulation
  water solubility: approximately 8.64 mg/mL
[2]; 100 μM, first experiment (FIG. 2)
  total superoxide signal scavenged: 28%
[2]; 3 mM, first experiment (FIG. 2)
  suppression of superoxide anion signal: near complete suppression of the superoxide anion signal
[2]; Homo sapiens, Neutrophil, Solvent EtOH (1:2 EtOH/water stock, 0.3% final), 0.1 mM, read-out: Mean (% inhibition) of superoxide anion signal
  inhibition at 100 µM: ~40%
[2]; Homo sapiens, Neutrophil, Solvent EtOH, 0.5 mM, read-out: Mean (% inhibition) of superoxide anion signal
  inhibition at 500 µM: 60.1%
[2]; Homo sapiens, Neutrophil, Solvent EtOH, 1.0 mM, read-out: Mean (% inhibition) of superoxide anion signal
  inhibition at 1000 µM: 78%
[2]; Homo sapiens, Neutrophil, Solvent EtOH, 3.0 mM, read-out: Mean (% inhibition) of superoxide anion signal
  inhibition at 3000 µM: 95%
[2]; Homo sapiens, Neutrophil, Solvent Water, 0.1 mM, read-out: Mean (% inhibition) of superoxide anion signal
  inhibition at 100 µM: 19.3%
[2]; Solvent EtOH (1:2 EtOH/water stock, 0.3% final), 0.1 mM, listed as Mixture
  Mean (% inhibition) of superoxide anion signal: 38.0%
[2]
  potency relative to the SOD mimetic positive control: one to two orders of magnitude less potent
[2]; listed as disodium disuccinate derivative
  potency relative to the SOD mimetic positive control: between one and two orders of magnitude less potent
